In general, solubility refers to how much of the substance goes into solution per volume. As a reminder, the IC50 is the point on the concentration scale where inhibition reaches its midpoint.

SMILES strings stand for the structures. In brackets after ≈: the same amount, converted by molar mass.

For one series, the system named is db/db and ob/ob mice. The settings on record: dose related; cited from earlier work.
A further series has as its system hepatocytes. To be noted: cited from earlier work; for glucose output: glucagon stimulated.
A short description of another series: Thermodynamic solubility. It counts as physicochemical. The settings on record: phosphate buffer, pH 7.4, aqueous buffer, thermodynamic from solid, 0.1 M phosphate at pH7.4 for 24 hours. As for the experimental part:
The thermodynamic solubility data for the compounds of the invention as given above may be measured by agitating the compound in 0.1 M phosphate at pH7.4 for 24 hours, then analysis of the supernatant (for example by LCUV/MS) using a solution (for example in DMSO) of known concentration as the calibrant.

Series [1] concerns the target T1, Human recombinant liver glycogen phosphorylase a (hrl GPa) (Homo sapiens, UniProt P06737).
T1 sequence (P06737 1-847): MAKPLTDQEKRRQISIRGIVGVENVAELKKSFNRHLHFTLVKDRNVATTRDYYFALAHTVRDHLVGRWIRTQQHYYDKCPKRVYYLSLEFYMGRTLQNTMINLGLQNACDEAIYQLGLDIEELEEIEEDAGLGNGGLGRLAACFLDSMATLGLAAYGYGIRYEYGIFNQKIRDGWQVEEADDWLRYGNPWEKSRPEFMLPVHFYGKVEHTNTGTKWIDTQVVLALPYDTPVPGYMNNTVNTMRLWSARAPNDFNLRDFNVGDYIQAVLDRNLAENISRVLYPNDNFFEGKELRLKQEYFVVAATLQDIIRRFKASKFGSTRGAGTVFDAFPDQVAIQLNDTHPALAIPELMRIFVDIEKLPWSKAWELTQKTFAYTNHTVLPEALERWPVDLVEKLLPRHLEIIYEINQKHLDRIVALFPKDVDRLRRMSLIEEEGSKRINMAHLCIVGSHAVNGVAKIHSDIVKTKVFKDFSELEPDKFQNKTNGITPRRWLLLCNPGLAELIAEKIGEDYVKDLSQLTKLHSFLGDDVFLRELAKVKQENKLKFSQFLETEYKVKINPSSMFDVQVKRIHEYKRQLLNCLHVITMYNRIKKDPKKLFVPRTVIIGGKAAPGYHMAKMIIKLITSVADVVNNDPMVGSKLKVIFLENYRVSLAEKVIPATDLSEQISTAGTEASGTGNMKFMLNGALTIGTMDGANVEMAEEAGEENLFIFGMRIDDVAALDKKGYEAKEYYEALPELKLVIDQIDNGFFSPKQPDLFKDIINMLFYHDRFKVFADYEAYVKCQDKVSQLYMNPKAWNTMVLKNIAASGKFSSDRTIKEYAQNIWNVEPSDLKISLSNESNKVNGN
Kind of series: Glycogen phosphorylase inhibition, multienzyme coupled assay. The series is classed as biochemical. To be noted: hrl GPa 20 nM, 6 hours at 30° C. The method, then: The activity of the compounds is alternatively determined by measuring the inhibitory effect of the compounds on glycogen degradation, the production of glucose-1-phosphate from glycogen is monitored by the multienzyme coupled assay, as described in EP 0 846 464 A2, general method of Pesce et al (Pesce, M A, Bodourian, S H, Harris, R C, and Nicholson, J F (1977) Clinical Chemistry 23, […]). The reactions were in 384 well microplate format in a volume of 50 μl. The change in fluorescence due to the conversion of the co-factor NAD to NADH is measured at 340 nm excitation, 465 nm emission in a Tecan Ultra Multifunctional Microplate Reader. The reaction is in 50 mM […], 3.5 mM KH2PO4, 2.5 mM MgCl2, 2.5 mM ethylene glycol-bis(b-aminoethyl ether) N,N,N,′N′-tetraacetic acid, 100 mM KCl, 8 mM D-(+)-glucose pH7.2, containing 0.5 mM dithiothreitol, the assay buffer solution. Human recombinant liver glycogen phosphorylase a (hrl GPa) 20 nM is pre-incubated in assay buffer solution with 6.25 mM NAD, 1.25 mg type E1 glycogen at 1.25 mg ml^−1 the reagent buffer, for 30 minutes. […] The non-inhibited activity of GPa is measured in the presence of 10 μl 5% DMSO in assay buffer solution and maximum inhibition measured in the presence of 5 mgs ml^−1 N-ethylmaleimide. […] Relative Fluoresence Units (RFUs) are measured at 340 nm excitation, 465 nm emission. […]

A further series relates to conscious dogs. The settings on record: following a glucagon challenge; cited from earlier work.

Turning to `CN(C)C(=O)[C@H](O)[C@H](Cc1ccccc1)NC(=O)c1cc2cc(Cl)ccc2[nH]1` [CP91149], the plasma glucose concentration result in the series with db/db and ob/ob mice is reported as “reduced, in a dose related manner”. Also, in the series with hepatocytes, the glucagon stimulated glycogenolysis result is on record as “reduce” and the glucose output result was “reduce”.

Take `O=C(N[C@@H](Cc1ccc(F)cc1)C(=O)N1CCC(O)CC1)c1cc2cc(Cl)ccc2[nH]1` [CP320626]: the plasma glucose concentration result in the series on db/db and ob/ob mice is recorded as “reduced, in a dose related manner”. In the series on hepatocytes, the glucagon stimulated glycogenolysis entry is listed as “reduce” and the glucose output entry is “reduce”.

In turn, `CN(C(=O)[C@@H](N)CO)[C@@H]1c2ccccc2C[C@H]1NC(=O)c1cc2cc(Cl)ccc2[nH]1.Cl` [Example 2, 5-Chloro-N-{(1R,2R)-1-[methyl(seryl)amino]-2,3-dihydro-1H-inden-2-yl}-1H-indole-2-carboxamide hydrochloride] showed a solubility at 24 h in the series “Thermodynamic solubility” of 173 µM. Besides, in series [1], the IC50 came out at 500 nM.

With `CCN1C(C)=C(C(=O)OC(C)C)C(c2ccccc2Cl)C2=C1COC2=O` (stereo not drawn) [Bay R 3401], in the series on conscious dogs, the arterial plasma glucose entry is “reduced significantly” and the hepatic glucose output result is on record as “reduced significantly”.

`CN(C(=O)[C@H](O)CO)[C@@H]1c2ccccc2C[C@H]1NC(=O)c1cc2cc(Cl)ccc2[nH]1` [Example 19, 5-Chloro-N-{(1R,2R)-1-[[(2R)-2,3-dihydroxypropanoyl](methyl)amino]-2,3-dihydro-1H-inden-2-yl}-1H-indole-2-carboxamide] registered a solubility at 24 h in the series “Thermodynamic solubility” of 119 µM (≈ 50.9 µg/mL). Besides, the IC50 in series [1] turned out to be 110 nM.

(Values after patent publication US20060199966A1, “Indol-2-amides as glycogen phosphorylase inhibitors” (AstraZeneca AB, priority 2003, published 2006).)
